Laboratory results: US11324747B2, “Methods and compositions for managing neuroinflammation and neurodegeneration” (CENTRE FOR CELLULAR AND MOLECULAR PLATFORMS, priority 2016, dated 2022)
“Also recorded” adds a separate entry of the source. Read-outs that look alike come from different tables or passages of the source.

Tests used:
ERα = target: T1, ERα (Homo sapiens, UniProt P03372); details: at concentrations below 10 μM; cited from earlier work
T1 sequence (P03372 1-595): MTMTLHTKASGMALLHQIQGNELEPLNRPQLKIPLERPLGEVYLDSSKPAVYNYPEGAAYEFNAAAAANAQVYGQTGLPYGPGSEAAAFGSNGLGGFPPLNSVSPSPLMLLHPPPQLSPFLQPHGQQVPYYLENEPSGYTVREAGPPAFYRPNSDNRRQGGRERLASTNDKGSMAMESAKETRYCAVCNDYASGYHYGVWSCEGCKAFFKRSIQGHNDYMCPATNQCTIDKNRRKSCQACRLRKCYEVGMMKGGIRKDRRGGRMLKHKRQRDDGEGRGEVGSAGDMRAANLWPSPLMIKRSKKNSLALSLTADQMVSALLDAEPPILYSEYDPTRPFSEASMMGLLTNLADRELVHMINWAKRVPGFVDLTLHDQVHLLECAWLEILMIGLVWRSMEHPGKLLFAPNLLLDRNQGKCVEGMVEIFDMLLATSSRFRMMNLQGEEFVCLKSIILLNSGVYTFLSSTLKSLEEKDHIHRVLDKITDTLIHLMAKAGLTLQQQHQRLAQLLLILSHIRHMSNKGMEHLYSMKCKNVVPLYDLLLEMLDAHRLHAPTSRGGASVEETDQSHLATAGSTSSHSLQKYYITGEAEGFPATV

ERRγ = target: T2, ERRγ (Homo sapiens, UniProt P62508); details: at concentrations below 10 μM; cited from earlier work
T2 sequence (P62508 1-458): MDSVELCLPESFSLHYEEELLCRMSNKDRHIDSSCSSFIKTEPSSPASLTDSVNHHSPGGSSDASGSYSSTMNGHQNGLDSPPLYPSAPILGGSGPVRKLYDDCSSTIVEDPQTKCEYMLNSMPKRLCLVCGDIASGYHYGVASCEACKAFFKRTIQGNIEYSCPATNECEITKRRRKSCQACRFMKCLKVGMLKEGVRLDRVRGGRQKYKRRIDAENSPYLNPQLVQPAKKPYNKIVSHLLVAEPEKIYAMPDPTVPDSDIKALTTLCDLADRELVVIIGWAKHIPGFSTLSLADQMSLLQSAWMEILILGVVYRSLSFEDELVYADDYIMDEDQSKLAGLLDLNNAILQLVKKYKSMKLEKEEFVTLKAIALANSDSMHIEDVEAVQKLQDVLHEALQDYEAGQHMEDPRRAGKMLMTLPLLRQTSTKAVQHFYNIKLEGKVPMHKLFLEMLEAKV

N27 cells [1] = details: 30 hours; for neuroprotective effect on N27 cell survival: Example 2.1; for neuroprotective effect on N27 cell survival / neuronal survival as compared to LPS alone / N27 cell survival (protective effect) vs LPS alone / protective effect in N27 cells: LPS 1 μg/ml; for neuronal survival as compared to LPS alone: Example 2.2; for protective effect in N27 cells: Example 5; for effect of compound alone on the cells, survival, nitrite release or morphology: compound 1 μM without LPS
Method: The survival of the N27 cells was then measured using MTS Assay.
N27 (Rat Dopaminergic cells) and BV2 (Mice Glial Cells) cells were co-cultured in Corning HTS Transwell Plates in RPMI Complete media supplemented with 10% HI-FBS, N27 in the lower well of the 24 well plates and BV2 in the 0.4 μm porous permeable support inserted on top of the 24 well for 24 hours at 37° C., 5% CO2. BV2 cells were treated with 1 μg/ml LPS in the presence and absence of 10 μM of CCND-01, CCND-02, CCND-03 and CCND-04, and 10 mM of NAC for 30 hours at 37° C., 5% CO2. The survival of N27 cells was then measured by performing MTS Assay and taking readings at 490 nm after 30 mins of incubation.
MTS assay was performed to determine the percentage N27 survival.

BV2 cells [2] = assay: LPS induced nitrite release by BV2 in N27-BV2 co-culture (Griess assay); type: cell-based, mice; details: LPS 1 μg/ml, 30 hours
N27 cells [3] = assay: Toxicity to N27 cells induced by conditioned media from LPS activated BV2 cells (MTS assay); type: cell-based, rat; details: Example 3, FIG. 3, LPS 1 μg/ml, 30 hours
IL-6 = assay: LPS induced IL-6 secretion by BV2 in N27-BV2 co-culture (Luminex multiplexing assay); type: cell-based, mice; details: Example 4.3; LPS 1 μg/ml, compound 1 μM, 30 hours
Method: (§1) Luminex multiplexing assay was performed to determine the concentration of IL-6 and MCP-1 released. LPS (1 μg/ml) was used as control for IL-6 release or MCP-1 release.

BV2 cells [4] = assay: LPS induced nitrite release in BV2 cells (Griess assay); type: cell-based, mice; details: Example 1; LPS 1 μg/ml, 48 hours, vs LPS alone
Method: The immortalized rat mesencephalic dopaminergic cells (N27 cells) were grown in RPMI 1640 medium containing 10% Fetal Bovine Serum (FBS), 2 mM L-glutamine, 50 U Penicillin and 50 μg/ml Streptomycin [22]. Mice microglial cells (BV2 cells) were grown in RPMI 1640 medium containing 10% Heat Inactivated Fetal Bovine Serum (HI-FBS). Cells were maintained in a humidified atmosphere of 5% CO2 at 37° C. until they were 60-70% confluent.
BV2 (Mice Glial Cells) cells were treated with LPS at a concentration of 1 μg/ml in the presence or absence of test compounds PD180970 or AGK-2 at a concentrating ranging from 0.1 nM-[…] and incubated for 48 hours at 37° C. at 5% CO2. Griess assay was used to measure nitrite released in order to investigate the anti-inflammatory potential of the compounds. Untreated BV2 cells was used as blank, 0.1% DMSO in media was used as vehicle. LPS (1 μg/ml) was used as control for nitrite release.

HEK-Blue™ TLR2 cells = assay: nF-κB induced SEAP activity in HEK-Blue TLR2 cells; type: cell-based; details: Pam3CSK4 10 ng/ml, compound 1 nM-100 μM, 12 hours
Method: (§2) Hek-Blue TLR-2, TLR-3 and TLR-4 Cells were obtained from InvivoGen (San Diego, Calif.). Culture treatment and assay was performed as per the manufacturers recommended protocol. Cells were treated and incubated for 12 hours, followed by collection of OD values at 620 nm.
(§3) HEK-Blue™ TLR4 cells were treated with LPS and HEK-Blue™ TLR2 were treated with Pam3CSK4 at a concentration of 10 ng/ml for 12 hours in the presence or absence of compounds (PD180970 or AGK-2) at a range of 1 nM-100 μM, and assayed for SEAP activity. LPS ([…]) was used as control for SEAP activity. nF-κB induced SEAP activity was quantified using HEK-Blue™ Detection at 620 nm.

HEK-Blue™ TLR4 cells = assay: nF-κB induced SEAP activity in HEK-Blue TLR4 cells; type: cell-based; details: LPS 10 ng/ml, compound 1 nM-100 μM, 12 hours
Method: as §2, §3

N27 cells [5] = assay: MPP+ induced neurotoxicity in N27 cells (MTS assay); type: cell-based, rat; details: 300 μM MPP+, compound 0.1 nM-10 μM, 24 hours
Method: Cells were co-treated with 300 μM MPP^+ in the presence and absence of compounds for 24 hours. Treatments were made in complete RPMI medium containing 2% FBS.
N27 cells were treated with 300 μM of MPP^+ in the presence and absence of compounds (PD180970 or AGK-2) in a concentration range of 0.1 nM-10 μM and incubated for 24 hours. MPP^+ (300 μM) treated N27 cells was used as control. MTS assay was used to check the cell viability in order to investigate the neuroprotective potential of the compounds. None of the compounds could rescue MPP^+ treated dopaminergic N27 cells.

MCP-1 = assay: LPS induced MCP-1 secretion by BV2 in N27-BV2 co-culture (Luminex multiplexing assay); type: cell-based, mice; details: Example 4.3; LPS 1 μg/ml, compound 1 μM, 30 hours
Method: as §1

N27 cells [6] = assay: Hydrogen peroxide induced neurotoxicity in N27 cells (MTS assay); type: cell-based, rat; details: 75 μM hydrogen peroxide, compound 0.1 nM-10 μM, 8 hours
Method: Cells were co-treated with 75 μM H2O2 in the presence and absence of compounds for 8 hours. Treatments were made in complete RPMI medium containing 2% FBS.
N27 cells were treated with 75 μM hydrogen peroxide in the presence and absence of compounds PD180970 or AGK2 in a concentration range of 0.1 nM-10 μM for 8 hours in 96 well plates. MTS assay was used to check the cell viability in order to investigate the neuroprotective potential of the compounds. Cells with untreated media was used as blank, and cells with media containing 0.1% DMSO (vehicle or solvent for the compounds) was used as vehicle. Hydrogen peroxide (75 μM) treated N27 cells was used as control for.

| SMILES | protective effect in N27 cells (N27 cells [1]; compound 10 μM) | level of IL-6 released by LPS induced BV2 cells (IL-6) | levels of nitrite released by LPS treated BV2 cells (BV2 cells [4]) | neuroprotective effect on N27 cell survival (N27 cells [1]; compound 10 μM) | neuronal survival as compared to LPS alone (N27 cells [1]; compound 1 μM) | N27 cell survival (protective effect) vs LPS alone (N27 cells [1]; Example 4, compound 1 μM) | effect of compound alone on the cells, survival, nitrite release or morphology (N27 cells [1]; Example 4) | nF-κB induced SEAP activity (HEK-Blue™ TLR2 cells) | nF-κB induced SEAP activity (HEK-Blue™ TLR4 cells) | neuroprotective effect on MPP+ induced toxicity (N27 cells [5]) | level of MCP-1 released by LPS induced BV2 cells (MCP-1) | level of nitrite released by LPS induced BV2 cells (BV2 cells [2]; Example 2.2, compound 1 μM) | level of nitrite released by LPS induced BV2 cells (BV2 cells [2]; Example 4, compound 1 μM) | neuroprotective effect on H2O2 induced toxicity (N27 cells [6]) | neuroprotective effect in N27 cells (N27 cells [3]; compound 10 μM) | also measured |
| --- | --- | --- | --- | --- | --- | --- | --- | --- | --- | --- | --- | --- | --- | --- | --- | --- |
| COc1cc(/C=C(\C#N)C(=O)Nc2nnc(C(F)(F)F)s2)ccc1OCc1ccc(C(F)(F)F)cc1C(F)(F)F [CCND-04] |  |  |  |  |  |  |  |  |  |  |  |  |  |  |  | antagonist activity on ERα (ERα): no significant antagonist activity; antagonist activity on ERRγ (ERRγ): no significant antagonist activity |
| CC(=O)N[C@@H](CS)C(=O)O [NAC, N-acetylcysteine] | neuroprotective role |  |  |  |  |  |  |  |  |  |  |  |  |  |  | neuroprotective effect on N27 cell survival (N27 cells [1]; NAC 10 mM): inhibit neuronal cell death; neuronal survival as compared to LPS alone (N27 cells [1]; NAC 10 mM): significant increase in neuronal survival; N27 cell survival (protective effect) vs LPS alone (N27 cells [1]; Example 4.1, NAC 10 μM): significant protective effect; level of nitrite released by LPS induced BV2 cells (BV2 cells [2]; Example 2.2, NAC 10 mM): significant reduction in level of nitrite; neuroprotective effect in N27 cells (N27 cells [3]; NAC 1 mM): significant neuroprotective effect |
| Cc1cc(Nc2ncc3cc(-c4c(Cl)cccc4Cl)c(=O)n(C)c3n2)ccc1F [PD180970] | significant protective effect | significant reduction in level of IL-6 | significant reduction in levels of nitrite | significant neuroprotective effect | significant increase in neuronal survival | significant protective effect; also recorded: significant increase in neuronal survival | no effect | not in HEK-Blue™ TLR2 cells | significant inhibitory effect | no significant neuroprotective effect | significant reduction in levels of IL-6 and MCP-1 | significant reduction in level of nitrite | significant decrease in nitrite level; also recorded: significant reduction in level of nitrite | no significant neuroprotective effect | significant neuroprotective effect |  |
| N#C/C(=C\c1ccc(-c2cc(Cl)ccc2Cl)o1)C(=O)Nc1cccc2ncccc12 [AGK-2] | significant protective effect | significant reduction in level of IL-6 | significant reduction in levels of nitrite | significant neuroprotective effect | significant increase in neuronal survival | significant protective effect; also recorded: significant increase in neuronal survival | no effect | not in HEK-Blue™ TLR2 cells | significant inhibitory effect | no significant neuroprotective effect | significant reduction in levels of IL-6 and MCP-1 | significant reduction in level of nitrite | significant decrease in nitrite level; also recorded: significant reduction in level of nitrite | no significant neuroprotective effect | significant neuroprotective effect |  |
| Cc1ccc(NC(=O)c2ccc(CN3CCN(C)CC3)cc2)cc1Nc1nccc(-c2cccnc2)n1 [Imatinib] | significant protective effect |  |  |  |  |  |  |  |  |  |  |  |  |  |  |  |
| Cc1cn(-c2cc(NC(=O)c3ccc(C)c(Nc4nccc(-c5cccnc5)n4)c3)cc(C(F)(F)F)c2)cn1 [Nilotinib] | significant protective effect |  |  |  |  |  |  |  |  |  |  |  |  |  |  |  |
